Assay results from PubChem BioAssay AID463203 (Broad Institute, 2010).
The source made the active and inactive calls.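 How the source made its calls: active means more than half of replicate measurements showing over 20% loss of kinase signal relative to plate controls; inconclusive means some but at most half of replicates over 20% loss; inactive means no replicate over 20% signal loss.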

These compounds were tested against Glycogen synthase kinase-3 alpha (Homo sapiens) (UniProt P49840) (assay: concentration-response blocking of human GSK3A – biochemical, luminescence, cell-free homogeneous, retest, dose response (AID 463203)). Conditions: GSK-3 alpha enzyme, ADP-Glo luminescence, 60 min.
Glycogen synthase kinase-3 alpha (Homo sapiens), sequence (P49840 whole entry, looked up): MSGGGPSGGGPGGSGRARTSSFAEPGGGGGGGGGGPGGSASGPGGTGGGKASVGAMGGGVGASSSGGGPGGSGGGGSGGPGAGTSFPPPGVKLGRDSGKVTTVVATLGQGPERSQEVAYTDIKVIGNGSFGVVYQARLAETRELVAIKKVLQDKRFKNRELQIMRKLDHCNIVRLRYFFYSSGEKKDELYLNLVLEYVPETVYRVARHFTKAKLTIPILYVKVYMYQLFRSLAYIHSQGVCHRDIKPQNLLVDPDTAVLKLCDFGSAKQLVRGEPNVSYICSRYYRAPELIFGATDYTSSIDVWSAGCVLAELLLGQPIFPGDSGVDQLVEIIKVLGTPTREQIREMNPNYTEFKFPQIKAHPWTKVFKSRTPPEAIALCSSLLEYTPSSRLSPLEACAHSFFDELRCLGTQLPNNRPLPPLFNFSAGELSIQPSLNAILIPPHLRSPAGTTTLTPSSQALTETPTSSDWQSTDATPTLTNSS

| Structure (SMILES) | AC50 |
| --- | --- |
| CN(C)c1ccc(CN2CCCCC2)cc1 | > 30 µM (inactive) |
| CCc1c(C)c(C#N)c2nc3ccccc3n2c1NC | > 30 µM (inactive) |
| CN(Cc1ccccc1)c1ncnc(N)c1[N+](=O)[O-] | 18.8 µM |
| CC1=C(C#N)c2nc(N)c(C#N)c(C)c2/C1=C\c1ccc(OCC(=O)O)c(Cl)c1 | 20.4 µM |
| Cc1ccnc(SCC(=O)Nc2sc3c(c2C#N)CCCC3)n1 | > 30 µM (inactive) |
| Cc1c(C(=O)NCCc2ccccc2)oc2ccccc12 | > 30 µM (inactive) |
| C/C(NCCCn1ccnc1)=C(\C#N)C(N)=O | 19.2 µM |
| Cc1ccc(CSc2ccc3nnc(-c4cccnc4)n3n2)cc1 | > 30 µM (inactive) |
| O=C(Nc1ccccc1-c1nnc(SCc2ccccc2Cl)o1)c1ccccc1 | > 30 µM (inactive) |
| Cn1nnnc1SCC(=O)Nc1nn(-c2ccccc2)nc1C(N)=O | 24.2 µM |
| FC(F)(F)c1cnc(N/N=C/c2ccncc2)c(Cl)c1 | > 30 µM (inactive) |
| COc1ccc(-n2c(O)c(C=NC3CC3)c(=O)[nH]c2=O)cc1 | 24.9 µM |
| O=c1[nH]ncn1-c1ccccc1 | > 30 µM (inactive) |
| CC(=O)c1cc(-c2ccc(F)cc2)n(CCC(=O)Nc2cc(C)[nH]n2)c1C | 11.9 µM |
| CCc1cc2c(N3CCN(c4nnc(CC)s4)CC3)ncnc2s1 | 16 µM |
| O=C(Nc1ccc(Cl)c([N+](=O)[O-])c1)c1ccc(NCCCN2CCOCC2)c([N+](=O)[O-])c1 | > 30 µM (inactive) |
| O=C(CNC(=S)N(Cc1ccccc1)Cc1cccnc1)NC1CCCCC1 | > 30 µM (inactive) |
| Cc1ccc(NC(=O)C2CCN(c3ncnc4sc(C)c(C)c34)CC2)cc1S(=O)(=O)N(C)C | > 30 µM (inactive) |
| COc1cc(C2c3sc(=O)[nH]c3SC3C4CCC(C4)C23)ccc1O (stereo unspecified) | 1.22 µM |
| NC(=O)c1cn(-c2ccccc2)nc1-c1cccnc1 | > 30 µM (inactive) |
| CCOc1cccc(-c2c(C(=O)N/N=C(\C)c3ccccn3)nnn2-c2nonc2N)c1 | 2.56 µM |
| O=C(Nc1ccccc1F)Nc1ccccc1OC(F)F | > 30 µM (inactive) |

| Structure (SMILES) | AC50 |
| --- | --- |
| CC1=C(C(=O)OCc2ccc3c(c2)OCO3)C(c2ccccc2)NC(=O)N1 (stereo unspecified) | 1.97 µM |
| Cc1cccc(NC(=O)c2sc(Cl)nc2-c2ccccc2)c1 | > 30 µM (inactive) |
| O=C(NCc1ccc2c(c1)OCO2)c1cc(COc2c(F)cccc2F)on1 | > 30 µM (inactive) |
| COC(=O)[C@@H](NC(=O)NCc1ccccc1F)C(C)C | > 30 µM (inactive) |
| COc1ccc(OCc2nc(N)nc(Nc3ccccc3OC)n2)cc1 | > 30 µM (inactive) |
| Cc1csc(NC(=O)/C=C/c2ccc3c(c2)OCO3)n1 | > 30 µM (inactive) |
| CSc1ccc(-c2cc(=O)c3ccccc3o2)cc1 | > 30 µM (inactive) |
| Cn1cc(C(=O)c2cccc(Cl)c2)cc1/C=N\O | 28.3 µM |
| O=C(Nc1cccc(Cl)c1N1CCOCC1)c1ccc(Br)o1 | > 30 µM (inactive) |
| Oc1ccc(-c2nnc(-c3ccc(O)cc3)nn2)cc1 | > 30 µM (inactive) |
| COCCCNc1c2c(nc3nnnn13)CCCC2 | > 30 µM (inactive) |
| CCCCSc1nc(C)[nH]c1[N+](=O)[O-] | > 30 µM (inactive) |
| C/C(=N/NC(=O)c1ccc(C)s1)c1ccncc1 | 27.3 µM |
| COc1ccc(C(=O)c2cc(C(C)=O)c(Nc3ccccc3)s2)cc1 | > 30 µM (inactive) |
| NC(=O)c1cc([N+](=O)[O-])ccc1NCc1ccc(O)cc1 | 4.32 µM |
| COC(=O)C1=C(C)N(C)C(=O)/C1=C\c1ccco1 | > 30 µM (inactive) |
| Cc1ccc(Cn2nc(-c3ccccc3)nc2-c2ccccc2)cc1 | > 30 µM (inactive) |
| O=C(O)CN1C(=O)C2C3CC(C2C1=O)C1C(c2ccccc2)c2sc(=O)[nH]c2SC31 (stereo unspecified) | > 30 µM (inactive) |
| O=C(NCCO)c1ccccc1O | > 30 µM (inactive) |
| N/C(=N\OC(=O)c1ccc(Br)cc1)c1cccc([N+](=O)[O-])c1 | > 30 µM (inactive) |
| CCOC(=O)c1cc(CC)sc1NC(=O)C1CC1 | > 30 µM (inactive) |
| CCOc1ccccc1-n1c(O)c(C=NCc2ccc3c(c2)OCO3)c(=O)[nH]c1=O | 17.5 µM |

| Structure (SMILES) | AC50 |
| --- | --- |
| O=C1NC(=O)/C(=C\c2ccc(OCc3cccc(C(=O)O)c3)c(Cl)c2)N1 | 4.85 µM |
| CCc1c(C)c(C#N)c2nc3ccccc3n2c1NCC1CCCO1 (stereo unspecified) | 12.6 µM |
| CCN(C(=O)CN1CCCCCC1)c1c(N)n(Cc2ccccc2)c(=O)[nH]c1=O | > 30 µM (inactive) |
| Cc1nc2ncnn2c(C)c1Cc1c(Cl)cccc1Cl | > 30 µM (inactive) |
| COc1cc(C2CC(=O)Nc3n[nH]c(-c4ccccc4)c32)cc(OC)c1OC (stereo unspecified) | > 30 µM (inactive) |
| O=C(O)CCCNc1ccc([N+](=O)[O-])c(NCCCC(=O)O)n1 | > 30 µM (inactive) |
| COc1ccc(-c2cc(C(F)(F)F)nc(SCCC(=O)NCc3ccco3)n2)cc1 | > 30 µM (inactive) |
| CCOC(=O)c1cnc2c(C)cc(Cl)cc2c1N1CCN(C)CC1 | > 30 µM (inactive) |
| Cc1sc(NC(=O)CSc2nc(N)cc(N)n2)c(C#N)c1C | > 30 µM (inactive) |
| O=C(NCCCn1ccnc1)C(Cl)(Cl)Cl | > 30 µM (inactive) |
| CCCNC(=O)NC(C)C12CC3CC(CC(C3)C1)C2 (stereo unspecified) | > 30 µM (inactive) |
| CCOc1cc(C(c2c(C)[nH][nH]c2=O)c2c(C)[nH][nH]c2=O)ccc1O | > 30 µM (inactive) |
| Cc1ccc(-c2noc(CSc3nnnn3-c3ccccc3)n2)cc1 | > 30 µM (inactive) |
| CC(C)NC(=O)Nc1n[nH]c(Nc2ccc(Cl)cc2)n1 | 4.87 µM |
| Oc1ccc(-c2nc3ncccn3c2Nc2ccc3c(c2)OCCO3)cc1 | > 30 µM (inactive) |
| CC(C)(C)NC(=O)/C(=C\C=C\c1ccccc1)NC(=O)c1ccc([N+](=O)[O-])cc1 | > 30 µM (inactive) |
| Cc1ccc(-c2nnc(CSc3nnc(C)s3)o2)cc1 | > 30 µM (inactive) |
| COc1ccc(/C=N/NC(=O)c2nnn(-c3nonc3N)c2-c2cccs2)c(OC)c1 | 1.04 µM |
| COc1cc(CN2CCN(Cc3ccc([N+](=O)[O-])cc3)CC2)c([N+](=O)[O-])cc1OC | > 30 µM (inactive) |
| Cc1ccc2nc(-c3cccc(N)c3)[nH]c2c1 | > 30 µM (inactive) |
| CN(C)CCCNS(=O)(=O)c1ccc(NC2CCCCCC2)c([N+](=O)[O-])c1 | > 30 µM (inactive) |
| O=C(Nc1cccc(C(=O)NC2CCCCC2)c1)c1ccccc1 | > 30 µM (inactive) |

| Structure (SMILES) | AC50 |
| --- | --- |
| CCOC(=O)c1oc2ccc3c(c2c1C)C(=O)CC1(CCN(C(=O)OCC)CC1)O3 | > 30 µM (inactive) |
| c1ccc(-c2noc(-c3ccc4c(c3)OCO4)n2)cc1 | > 30 µM (inactive) |
| Cc1cc2nc(-c3cccnc3SCC(=O)NCc3ccco3)[nH]c2cc1C | > 30 µM (inactive) |
| CC(C)=CCc1cc(-c2oc3cc(O)cc(O)c3c(=O)c2O)ccc1O | 9.4 µM |
| O=C1Nc2ccccc2/C1=C/c1cnc(-c2ccccc2)[nH]1 | > 30 µM (inactive) |
| CC(OC(=O)c1cccc(N2C(=O)c3ccccc3C2=O)c1)C(=O)Nc1ccc(N(C)C)cc1 (stereo unspecified) | > 30 µM (inactive) |
| O=C(O)Cn1cc(/C=N/NC(=O)c2cc3cc(Br)ccc3o2)c2ccccc21 | 6.05 µM |
| CCOC(=O)c1nc(NCc2ccccc2F)c2ccccc2n1 | > 30 µM (inactive) |
| Fc1ccc(Nc2ncnc3sccc23)cc1 | > 30 µM (inactive) |
| COC(=O)C1=C(C(=O)OC)C(c2cc(Cl)ccc2O)c2sc(=O)[nH]c2S1 (stereo unspecified) | 28.4 µM |
| CC(C)(C)CNc1cc(N2CCCC2)ccc1[N+](=O)[O-] | > 30 µM (inactive) |
| Cc1cccc(C)c1OC(=O)C(c1ccccc1)c1ccccc1 | > 30 µM (inactive) |
| Nc1n[nH]c2cc(=O)n(-c3ccc(Cl)cc3)nc12 | 18.9 µM |
| OCc1cn(-c2ccccc2)nn1 | > 30 µM (inactive) |
| CC(C)C(=O)Nc1cccc2nsnc12 | > 30 µM (inactive) |
| CCN1C(=O)/C(=C2\SC(=S)N(c3c(C)n(C)n(-c4ccccc4)c3=O)C2=O)c2ccccc21 | > 30 µM (inactive) |
| COC(=O)C1=C(C)Nc2ncnn2C1c1ccco1 (stereo unspecified) | > 30 µM (inactive) |
| CCN(CC)Cc1c(C(=O)N/N=C(\C)c2ccncc2)nnn1-c1nonc1N | 9.96 µM |
| Cc1ccc2c(c1)COc1c3ccc(C(=O)N4CCOCC4)cc3nn1-2 | > 30 µM (inactive) |
| O=[N+]([O-])c1cc(C(F)(F)F)ccc1NCCCN1CCOCC1 | > 30 µM (inactive) |
| COC(=O)c1c(NC(=O)Cc2cccs2)sc2c1CCCC2 | > 30 µM (inactive) |
| Cc1cccc(C)c1OCC(=O)Nc1ccc2c(c1)C(=O)NC2=O | 22.5 µM |

| Structure (SMILES) | AC50 |
| --- | --- |
| O=Cc1c(NCCc2cccc(F)c2)c2ccccc2[nH]c1=O | 15.2 µM |
| CN(Cc1c(C(=O)N/N=C/c2ccc(O)cc2)nnn1-c1nonc1N)c1ccccc1 | 0.243 µM |
| Cn1c(SCc2cnc(-c3ccccc3)s2)nnc1C1COc2ccccc2O1 (stereo unspecified) | > 30 µM (inactive) |
| Cn1c(=O)c2[nH]cnc2n(-c2ccccc2)c1=O | > 30 µM (inactive) |
| CC(C)(C)OC(=O)N1CCN(C(=O)c2[nH]cnc2C(=O)Nc2ccon2)CC1 | > 30 µM (inactive) |
| Cc1ccc(SCCc2cc[n+](CC(=O)c3ccccc3)cc2)cc1 | > 30 µM (inactive) |
| CC(C)N1C(=O)/C(=C/C=C/c2ccco2)C(=O)N(Cc2ccco2)C1=O | > 30 µM (inactive) |
| O=c1c2ccccc2oc2cc(NCCCn3ccnc3)ccc12 | > 30 µM (inactive) |
| CC(C)(C)NC(=O)CSc1ncccc1-c1nc2ccccc2[nH]1 | > 30 µM (inactive) |
| CN1/C(=C\C=C\C2=[N+](C)c3ccc4ccccc4c3C2(C)C)C(C)(C)c2ccccc21 | 10.3 µM |
| COc1ccc(N=c2oc3c(OC)cccc3cc2C(=O)NCc2ccco2)c(OC)c1 | > 30 µM (inactive) |
| COc1ccc(SCCN2CC[C@@H](C(C)(C)C)CCC2=O)cc1 | 23.6 µM |
| NC(=O)c1ccc(N=C2C(=O)Nc3ccc([N+](=O)[O-])cc32)cc1 | > 30 µM (inactive) |
| CC(=O)Nc1ccc(OC(=O)CC2SC(=O)NC2=O)cc1 (stereo unspecified) | > 30 µM (inactive) |
| Nc1ncc([N+](=O)[O-])s1 | > 30 µM (inactive) |
| O=C(Nc1cccc(-c2nc3cccnc3s2)c1)c1cccnc1Cl | 8.59 µM |
| O=[N+]([O-])c1ccc(NC2CCCC2)cc1 | > 30 µM (inactive) |
| Cc1ccccc1N=Nc1c(O)[nH]c2ccccc12 | > 30 µM (inactive) |
